# Experiments:
# E. coli UPEC CFT073 = experiment: Urinary tract infection model; format: in vivo, mouse
# Protocol: (§1) Animals: All animal studies were performed using male ICR mice (25 ± 2 gr). The Technion Animal Care and Use committee approved all procedures, care, and handling of animals. Ethics approval codes: IL0800519, IL0640421, IL0550618, IL1811217.
# (§2) For efficacy assessments, three infection models were used including one with topical treatment and two with systemic treatment. • Excisional skin wound infection model: mice were anesthetized by intraperitoneal administration of a mixture of ketamine 100 mg/kg and xylazine 5 mg/kg in PBS and their backs shaved with electric clippers. The following day mice were similarly anesthetized and were administrated (S.C) 0.05 mg/kg buprenorphine (for pain relief). A 5 mm diameter piece of skin was removed from the middle of the shaved back, with sterile biopsy punch resulting in a full-thickness injury. A total of 20 µL of a mid-logarithmic culture, containing 5 × 10^6 CFU P. aeruginosa 27853 were applied on the wound. Then, 15 min after inoculation, about 50 µL of hypromellose gel (prepared as described) containing OAC, antibiotic, or their combination were applied on the skin and covered with a piece of medical tape. As a control, the vehicle (drug-free gel) was similarly applied on the skin. After a treatment period of 4 h, about 8 mm diameter of skin surrounding the infected area was removed, suspended in PBS, homogenized, serially diluted 10-fold, and plated for CFU enumeration. The number of viable bacteria was determined after overnight incubation at 37 °C. The lower limit of detection was 50 CFU/wound. • Thigh infection model (TI): mice were inoculated intramuscularly with 1 × 10^6 CFU/mouse of mid-logarithmic E. coli 25922 and treated subcutaneously 1 and 3 h after inoculation. Mice were sacrificed 24 h after infection, their thighs excised, homogenized, serially diluted 10-fold, and plated for CFU enumeration. The number of viable bacteria was determined after overnight incubation at 37 °C. […] The number of viable bacteria was determined after overnight incubation at 37 °C. […]
# P. aeruginosa 27853 = experiment: Excisional skin wound infection model, topical treatment; format: in vivo, mouse; settings: 4 h treatment, mice n = 3 per group
# Protocol: as §1, §2
smiles,measurement,setting,value
CCCCC=CCCCCCCCC(=O)N[C@@H](CCCN)C(=O)N[C@@H](CCCN)C(=O)NCCCCCCCCCC(=O)N[C@@H](CCCN)C(N)=O [C14(ω5)OOc10O],Effect on bladder CFU counts,"E. coli UPEC CFT073; 12.5 mg/kg S.C at 1 and 6 h post-infection, CFU at 24 h",not those of the bladder
same,Reduction of kidneys' CFU counts,"E. coli UPEC CFT073; 12.5 mg/kg S.C at 1 and 6 h post-infection, CFU at 24 h, 10 mice per group, dead control mice not included",> 2 orders of magnitude
same,Gap of kidneys' CFU counts with the treated group,"E. coli UPEC CFT073; as above, if the two dead PBS-treated control mice were taken into consideration",four
same,Reduction of CFU count,P. aeruginosa 27853; hypromellose gel 0.2% (w/v),0.5 log10 units
same,Reduction of CFU count,P. aeruginosa 27853; hypromellose gel 1% (w/v),1.9 log10 units

# — publication PMC8621570, “Mechanistic Studies of Antibiotic Adjuvants Reducing Kidney’s Bacterial Loads upon Systemic Monotherapy” (Pharmaceutics, 2021)
